Assay results published in publication PMC2010280 (British Journal of Cancer, 1980).

Assays:
[1] = tested on: P388 leukaemic spleen colony-forming-units(LCFU-S); assay: Mouse spleen-colony assay (P388 leukaemia, femoral marrow LCFU-S); format: in vivo, male DBA/2 mice; settings: 8 u/kg/day for 6 days (Day 1-6); 10^6 P388 cells i.v. on Day 0; osmotic minipump vs daily i.p. bolus; groups of 5 mice
From the text: MATERIALS AND METHODS Mice.-6-8-week-old male DBA/2 mice weighing 20-25 g were purchased from the Jackson Laboratory, Bar Harbor, Maine. They were maintained on normal laboratory chow and acid water ad. lib. Mouse leukaemia.-P388 lymphocytic leu- kaemia was supplied by Dr Daniel Griswold, Southern Research Institute, Birmingham, Alabama, and serially transplanted as ain ascites tumour at weekly intervals ([…] every 7 days in McCoy's 5a medium. Gibco, Grant Island, NY). […] Ill addition to an un- treated control group, 5 animals were implanted with minipumps containing 0.900 NaCl. Seven days after cell injection, the mice of the untreated control and treated groups were killed, femurs isolated, and marrow cells washed out with McCoy's 5a medium. Appro- priate dilutions of the leukaemic femoral marrow cells were injected i.v. into groups of 10 DBA/2 mice. Eight days later, the recipient mice were killed, spleens removed and fixed in Bouin's solution. The number of surface nacroscopic, leukaemic colony-forming units (LCFU-S) were counted with a dissecting microscope, and the fraction of surviving LCFU per femur determined. Pharmacokinetic studies.-On Day 0, 106 P388 ascites cells were injected i.v. into groups of 30 DBA/2 mice. […] For the C.i.p. group, blood samples from at least 3 mice were col- lected in heparinized tubes by heart puncture every day for 6 days. […]

[2] = Bleomycin stability in the Alzet osmotic minipump; settings: in 0.9% NaCl, 37 C, for at least 6 days (determined for 7 days in saline)
[3] = From the text: MATERIALS AND METHODS Mice.-6-8-week-old male DBA/2 mice weighing 20-25 g were purchased from the Jackson Laboratory, Bar Harbor, Maine. They were maintained on normal laboratory chow and acid water ad. lib. Mouse leukaemia.-P388 lymphocytic leu- kaemia was supplied by Dr Daniel Griswold, Southern Research Institute, Birmingham, Alabama, and serially transplanted as ain ascites tumour at weekly intervals ([…] every 7 days in McCoy's 5a medium. Gibco, Grant Island, NY). […] Ill addition to an un- treated control group, 5 animals were implanted with minipumps containing 0.900 NaCl. Seven days after cell injection, the mice of the untreated control and treated groups were killed, femurs isolated, and marrow cells washed out with McCoy's 5a medium. Appro- priate dilutions of the leukaemic femoral marrow cells were injected i.v. into groups of 10 DBA/2 mice. Eight days later, the recipient mice were killed, spleens removed and fixed in Bouin's solution. The number of surface nacroscopic, leukaemic colony-forming units (LCFU-S) were counted with a dissecting microscope, and the fraction of surviving LCFU per femur determined. Pharmacokinetic studies.-On Day 0, 106 P388 ascites cells were injected i.v. into groups of 30 DBA/2 mice. […] For the C.i.p. group, blood samples from at least 3 mice were col- lected in heparinized tubes by heart puncture every day for 6 days. […] At least 3 mice were killed at each sampling time. Blood samples were centrifuged at 2,000 rev/min and 4?C for 10 min and the plasmas separated and immediately stored at -20?C. […] Data analysis-Statistical analysis of the differences betwNeen LCFU dose-response (i.e., drug dose vs fraction of CFU surviving per femur) curves for the two different treat- ments used the analysis of covariance method (Snedecor & Cochran, 1979). […] I. Intravenous administration. Cancer Chemother. Pharmacol., 1, 177. […] II. Intra- cavitary administration. Cancer Chemother. Pharmacol., 2, 127. BAKER, L. H., OPIPARI, M. I., WILSON, H., BOTTOMLEY, R. & COLTMAN, C. A., JR. […] Obstet. Gynecol., 52, 146. BARRANCO, S. C. […] Ed. Carter, Crooke & Umezawa. New York: Academic Press. p. […] Cancer Res., 36, 1418. MELLETT, L. B. (1973) Considerations in design of optimal therapeutic schedules, Pharmacology and the Future of Man. In Problems of Therapy, Vol. 3. Ed. Okita & Acheson. Basel: S. Karger. p. 332. METZLER, C. M. (1969) Technical Report 7292/69/ 7292/005. […] Proc. AACR and ASCO, 20, 202. […] Eds. Carter, Crooke & Umezawa. New York: Academic Press. p. 117. […] Cancer Treat. Rep., 62, 2011. SKIPPER, H. E., SCHABEL, F. M., JR & WILCOX, W. S. (1967) Experimental evaluation of potential anticancer agents. XXI. Scheduling of arabinosyl cytosine to take advantage of its S-phase speci- ficity against leukaemia cells. Cancer Chemother Rep., 51, 125. […]

With bleomycin as the substance, how does the “greater reduction of LCFU-S by continuous i.p. infusion than by intermittent i.p. bolus at identical dose” value [1] read?
Its value is 0.5 log.

And the “stability inside the osmotic minipump” value [2]?
Its value is 100%.

What about the “period during which plasma concentrations greater than 0.6 mu/ml are maintained” value ([3]; after continuous i.p. infusion (C.i.p.), 8 u/kg/day) of the same substance?
The value was “about 6 days”.

What about the “period during which bleomycin plasma concentration remains above 0.6 mu/ml” value ([3]; after intermittent i.p. bolus (I.i.p.) administration, 8 u/kg/day) of the same substance?
The value was “about 92 min”.

What about the “constant bleomycin plasma level” value ([3]; continuous i.p. infusion (osmotic minipump), 8 u/kg/day for 6 days, P388-bearing mice, radioimmunoassay, pooled plasma of groups of 3 mice, daily samples) of the same substance?
The value was 0.62 +/- 0.03 mu/ml.

And the “peak bleomycin plasma level” value ([3]; intermittent i.p. bolus, 8 u/kg/day, at 5 min after the dose, Day 5, radioimmunoassay)?
Its value is 32 mu/ml.
